Measurements as given in BindingDB's records for patent US20240109865 (Tyra Biosciences, 2024).
pKd: −log10 of the molar value.

Key:
Test in all cases: Kinase Assay
[1] = target: Fibroblast growth factor receptor 2 (Homo sapiens, UniProt P21802)
Description: (§1) Kinase-tagged T7 phage strains were prepared in an E. coli host derived from the BL21 strain. E. coli were grown to log-phase and infected with T7 phage and incubated with shaking at 32° C. until lysis. The lysates were centrifuged and filtered to remove cell debris. […] The liganded beads were blocked with excess biotin and washed with blocking buffer SeaBlock (Pierce), […], 1 mM DTT to remove unbound ligand and to reduce non-specific binding. […] Kds were determined using an 11-point 3-fold compound dilution series with three DMSO control points. […] The compounds were then diluted directly into the assays such that the final concentration of DMSO was 0.9%. All reactions performed in polypropylene 384-well plate. Each was a final volume of 0.02 ml.

[2] = target: Fibroblast growth factor receptor 1 (Homo sapiens, UniProt P11362)
Chain of Fibroblast growth factor receptor 1 (P11362 whole entry): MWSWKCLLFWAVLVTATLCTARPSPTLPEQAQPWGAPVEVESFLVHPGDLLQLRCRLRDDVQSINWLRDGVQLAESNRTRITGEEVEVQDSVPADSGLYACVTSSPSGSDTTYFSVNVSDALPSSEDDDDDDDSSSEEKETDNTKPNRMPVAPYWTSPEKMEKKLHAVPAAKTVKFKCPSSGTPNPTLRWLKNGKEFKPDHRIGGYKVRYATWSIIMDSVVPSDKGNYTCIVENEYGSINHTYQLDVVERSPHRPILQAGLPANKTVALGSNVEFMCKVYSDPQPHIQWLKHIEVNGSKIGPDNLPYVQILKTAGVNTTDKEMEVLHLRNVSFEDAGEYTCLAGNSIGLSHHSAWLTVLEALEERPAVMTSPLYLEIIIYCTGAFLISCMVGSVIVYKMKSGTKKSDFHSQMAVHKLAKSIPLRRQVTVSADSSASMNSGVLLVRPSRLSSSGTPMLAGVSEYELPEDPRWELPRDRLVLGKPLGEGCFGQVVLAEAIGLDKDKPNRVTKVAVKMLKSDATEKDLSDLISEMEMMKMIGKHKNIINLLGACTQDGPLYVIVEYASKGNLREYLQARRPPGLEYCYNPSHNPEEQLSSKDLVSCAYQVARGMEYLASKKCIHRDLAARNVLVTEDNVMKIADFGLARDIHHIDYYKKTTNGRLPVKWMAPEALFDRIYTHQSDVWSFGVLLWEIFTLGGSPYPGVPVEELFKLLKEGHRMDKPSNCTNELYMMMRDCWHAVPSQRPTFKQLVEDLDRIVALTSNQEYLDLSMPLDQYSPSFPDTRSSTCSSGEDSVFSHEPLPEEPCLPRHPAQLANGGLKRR
Description: as §1

[3] = target: Fibroblast growth factor receptor 4 (Homo sapiens, UniProt P22455)
Chain of Fibroblast growth factor receptor 4 (P22455 whole entry): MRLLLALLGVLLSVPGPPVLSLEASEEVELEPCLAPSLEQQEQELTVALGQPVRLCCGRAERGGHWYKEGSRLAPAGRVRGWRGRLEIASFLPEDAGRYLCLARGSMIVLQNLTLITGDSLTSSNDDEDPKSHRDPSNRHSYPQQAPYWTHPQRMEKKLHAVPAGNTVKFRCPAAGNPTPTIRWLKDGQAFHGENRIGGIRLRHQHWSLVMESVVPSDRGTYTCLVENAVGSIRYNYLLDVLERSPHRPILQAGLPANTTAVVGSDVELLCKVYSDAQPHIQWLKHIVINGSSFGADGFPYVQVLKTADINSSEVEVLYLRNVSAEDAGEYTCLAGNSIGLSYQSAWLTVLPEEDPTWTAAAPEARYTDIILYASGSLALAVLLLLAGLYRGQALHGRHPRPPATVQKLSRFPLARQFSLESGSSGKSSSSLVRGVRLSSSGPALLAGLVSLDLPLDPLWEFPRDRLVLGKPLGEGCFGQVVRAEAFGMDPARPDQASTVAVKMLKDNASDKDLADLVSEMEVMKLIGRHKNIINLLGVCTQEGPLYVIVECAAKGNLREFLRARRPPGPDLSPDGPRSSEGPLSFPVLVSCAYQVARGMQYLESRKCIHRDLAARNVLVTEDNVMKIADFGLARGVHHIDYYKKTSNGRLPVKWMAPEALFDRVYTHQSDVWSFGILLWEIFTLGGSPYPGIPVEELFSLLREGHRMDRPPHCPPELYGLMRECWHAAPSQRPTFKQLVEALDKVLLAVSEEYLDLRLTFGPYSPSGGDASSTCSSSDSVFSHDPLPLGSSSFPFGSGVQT
Description: as §1

Chain of Fibroblast growth factor receptor 2 (P21802 whole entry): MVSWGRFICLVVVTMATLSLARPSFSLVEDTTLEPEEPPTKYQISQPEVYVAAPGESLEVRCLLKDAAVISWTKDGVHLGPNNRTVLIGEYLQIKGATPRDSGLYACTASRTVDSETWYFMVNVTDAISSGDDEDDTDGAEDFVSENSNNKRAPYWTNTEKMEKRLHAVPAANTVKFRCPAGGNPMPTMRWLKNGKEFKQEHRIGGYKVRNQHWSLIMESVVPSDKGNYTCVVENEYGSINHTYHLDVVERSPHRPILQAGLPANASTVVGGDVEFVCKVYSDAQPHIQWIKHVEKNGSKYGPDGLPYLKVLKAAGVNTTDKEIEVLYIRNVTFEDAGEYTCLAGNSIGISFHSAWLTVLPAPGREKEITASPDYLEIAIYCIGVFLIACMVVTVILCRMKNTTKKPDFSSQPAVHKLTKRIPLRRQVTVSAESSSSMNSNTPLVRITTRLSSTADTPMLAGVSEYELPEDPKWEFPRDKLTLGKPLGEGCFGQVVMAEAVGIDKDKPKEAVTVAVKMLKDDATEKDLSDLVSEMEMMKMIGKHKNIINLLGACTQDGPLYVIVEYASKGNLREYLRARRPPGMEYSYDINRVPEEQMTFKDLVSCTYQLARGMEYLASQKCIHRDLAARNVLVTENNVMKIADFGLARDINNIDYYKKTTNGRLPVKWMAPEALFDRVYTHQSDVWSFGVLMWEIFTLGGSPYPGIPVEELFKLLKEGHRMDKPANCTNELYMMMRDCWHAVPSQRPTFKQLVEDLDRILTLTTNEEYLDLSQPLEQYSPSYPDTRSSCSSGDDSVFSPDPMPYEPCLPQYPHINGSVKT

| Structure (SMILES) | pKd [1] | pKd [2] | pKd [3] |
| --- | --- | --- | --- |
| Cc1cnnc(C)c1[C@@H](C)Oc1ccc2[nH]nc(-c3cnc(N4CCCC4)c(C#N)c3)c2c1 [US20240109865, Example 173.] | < 6.52 | – | – |
| C[C@@H](Oc1ccc2[nH]nc(-c3ccc(N4CC5(CCOC5)C4)nc3)c2c1)c1c(Cl)cnnc1Cl [US20240109865, Example 223.] | – | < 6.52 | < 6.52 |
